{"source": "paper PMC3769177", "about": "(Bioorganic & medicinal chemistry letters, 2013)", "test_system": "RD (embryonal) rhabdomyosarcoma cell line", "assay": "CellTiter-Glo Luminescent Cell Viability Assay, RD cells", "type": "cell-based", "conditions": "48 hours"}
{"smiles": "CN1CCN(CCOc2cc(OC3CCOCC3)c3c(Nc4c(Cl)ccc5c4OCO5)ncnc3c2)CC1", "note": "[Saracatinib]", "values": [{"measurement": "IC50[RD], inhibition of cell survival", "result": "did not reach the IC50"}]}
